In data set [1] the target is human BRD4 first bromodomain (BDI_K57-E168) (Homo sapiens (Human), UniProt O60885). The experiment in a line: TR-FRET bromodomain binding assay, BRD4 first bromodomain.
Data set [2] concerns the target human BRD4 second bromodomain (BDII_E352-M457) (Homo sapiens (Human), UniProt O60885). The data set is described as follows: TR-FRET bromodomain binding assay, BRD4 second bromodomain.
A short description of data set [3]: Human liver microsome stability assay. The following applies: both sexes, human, microsomes, pH 7.4. Format: in vitro ADME.
A short description of data set [4]: Rat liver microsome stability assay. The class given is in vitro ADME. Particulars: rat liver microsomes (male Sprague-Dawley), 0.5 μM test compound, 0.25 mg/mL microsomal protein, pH 7.4, 37° C.; read-out: Stability in rat liver microsomes (t1/2 in minutes). (In general: Microsomes from liver hold many membrane-bound enzymes, among them those of drug oxidation.)

Data set [5] is described as follows: Mouse liver microsome stability assay. The class given is in vitro ADME. Particulars: male, CD1, mouse, microsomes, pH 7.4.

Molecules are shown by their SMILES.

In general, Ki refers to the dissociation constant of the complex between target and ligand, obtained from inhibition or displacement. As for `Cn1cc(-c2cc(S(C)(=O)=O)ccc2Oc2cccc3ccncc23)c2cc[nH]c2c1=O` [Example 193, 4-[2-(isoquinolin-8-yloxy)-5-(methylsulfonyl)phenyl]-6-methyl-1,6-dihydro-7H-pyrrolo[2,3-c]pyridin-7-one], the Ki in data set [1] came to 70.4 nM; in data set [2] it was 13.6 nM. Further, the results for the half-life at 0.5 μM in data set [3], in data set [4] and in data set [5] were 11 min, 7 min and 2 min, respectively.

Regarding `Cn1cc(-c2cc(C(=O)NCc3cccnc3)ccc2Oc2ccc(F)cc2F)c2cc[nH]c2c1=O` [Example 128, 4-(2,4-difluorophenoxy)-3-(6-methyl-7-oxo-6,7-dihydro-1H-pyrrolo[2,3-c]pyridin-4-yl)-N-(pyridin-3-ylmethyl)benzamide], the results for the Ki in data set [1] and in data set [2] were 72.5 nM and 112 nM, respectively. The half-life at 0.5 μM amounted to 11 min in data set [3], 21 min in data set [4] and 4 min in data set [5].

Take `Cn1cc(-c2cc(S(C)(=O)=O)ccc2Oc2ccc3ccncc3c2)c2cc[nH]c2c1=O` [Example 172, 4-[2-(isoquinolin-7-yloxy)-5-(methylsulfonyl)phenyl]-6-methyl-1,6-dihydro-7H-pyrrolo[2,3-c]pyridin-7-one]: the values for the Ki in data set [1] and in data set [2] were 13.3 nM and 5.9 nM, respectively. Further, the half-life at 0.5 μM is 9 min in data set [3], 15 min in data set [4] and 7 min in data set [5].

For the compound `CN(C)CCNC(=O)c1ccc(Oc2ccc(F)cc2F)c(-c2cn(C)c(=O)c3[nH]ccc23)c1` [Example 131, 4-(2,4-difluorophenoxy)-N-[2-(dimethylamino)ethyl]-3-(6-methyl-7-oxo-6,7-dihydro-1H-pyrrolo[2,3-c]pyridin-4-yl)benzamide], the Ki in data set [1] came to 98.6 nM; in data set [2], 60 nM. Further, the half-life at 0.5 μM was above 120 min in data set [3], 71 min in data set [4] and 83 min in data set [5].

Take `CN1CCCC1CCOc1ccc(S(C)(=O)=O)cc1-c1cn(C)c(=O)c2[nH]ccc12` (stereo not shown) [Example 225, 6-methyl-4-{2-[2-(1-methylpyrrolidin-2-yl)ethoxy]-5-(methylsulfonyl)phenyl}-1,6-dihydro-7H-pyrrolo[2,3-c]pyridin-7-one]: the Ki in data set [1] came out at 264 nM; in data set [2], 845 nM. In addition, the results for the half-life at 0.5 μM in data set [3], in data set [4] and in data set [5] were 52 min, 59 min and above 120 min, respectively.

Consider `Cn1cc(-c2cc(S(C)(=O)=O)ccc2Oc2cc(F)c(F)c(F)c2)c2cc[nH]c2c1=O` [Example 194, 6-methyl-4-[5-(methylsulfonyl)-2-(3,4,5-trifluorophenoxy)phenyl]-1,6-dihydro-7H-pyrrolo[2,3-c]pyridin-7-one], for which the Ki in data set [1] is 28.9 nM; in data set [2], 19.1 nM. The half-life at 0.5 μM in data set [3] stood at 41 min; in data set [4], 38 min; in data set [5], 49 min.

On to `CCS(=O)(=O)Nc1ccc(Oc2ccc(F)cc2F)c(-c2cn(C)c(=O)c3[nH]cc(CN4CCOCC4)c23)c1` [Example 350, N-{4-(2,4-difluorophenoxy)-3-[6-methyl-3-(morpholin-4-ylmethyl)-7-oxo-6,7-dihydro-1H-pyrrolo[2,3-c]pyridin-4-yl]phenyl}ethanesulfonamide], for which the Ki in data set [1] was found to be 1400 nM; in data set [2], 505 nM. Also, the half-life at 0.5 μM came to 59 min in data set [3], 32 min in data set [4] and 23 min in data set [5].

With `Cn1cc(-c2cc(CN3CCCC3)ccc2OCC2CC2)c2cc[nH]c2c1=O` [Example 314, 4-[2-(cyclopropylmethoxy)-5-(pyrrolidin-1-ylmethyl)phenyl]-6-methyl-1,6-dihydro-7H-pyrrolo[2,3-c]pyridin-7-one], the Ki in data set [1] came out at 1600 nM; in data set [2], 1290 nM. Further, the half-life at 0.5 μM came out at 81 min in data set [3], 4 min in data set [4] and 6 min in data set [5].

(Values after patent publication US9296741B2, “Bromodomain inhibitors” (priority 2012, dated 2016).)
